Experimental data reported in patent publication US20180318199A1, “Pharmaceutical Composition Having Anti-Aging Properties against High-Glucose” (TAIWAN LEADER BIOTECH CORP., priority 2017, published 2018).
“Also recorded” adds a separate entry of the source.

Assays:
Type in all cases: cell-based, human
SIRT-1 = experiment: Immunoblotting of SIRT-1 and phos-SIRT-1 in HUVECs; conditions: ANM or RES + HG
Protocol: To determine whether ANM regulates HUVEC senescence through a SIRT-1-mediated pathway, protein expression levels of SIRT-1 are examined. In FIG. 9E, protein expression levels of SIRT-1 and phos-SIRT-1 are monitored by immunoblotting.
Cells are lysed by either RIPA lysis buffer or nuclear and cytoplasmic extraction reagents (Thermo Fisher Scientific). Protein concentrations are determined by Bio-Rad protein assay reagent (Bio-Rad Laboratories, Hercules, Calif.). Equal amounts of protein samples (60 μg) are separated by 7-12% SDS-PAGE and the separated proteins are transferred onto polyvinylidene […] (PVDC) membrane overnight. The transferred protein membranes are blocked with 5% non-fat dried milk for 30 min, followed by incubation with specific primary antibodies overnight, and either horseradish peroxidase-conjugated goat anti-rabbit or anti-mouse antibodies for 2 h. The blots are detected using VL Chemi-Smart 3000 (Viogene Biotek, Sunnyvale, Calif.) with the enhanced chemiluminescence (ECL) western blotting reagent (Millipore, Billerica, Mass.).

HNDFs = experiment: Trypan blue exclusion cell proliferation assay in HNDFs; conditions: 72 h
Protocol: To further clarify the effect of antcins, HG-induced reduction in cell proliferation is determined. In FIG. 2D, to determine the effect of antcins on cell proliferation efficacy, 5×10^4 cells/well of HNDFs are incubated with antcins in 6-well plates in the presence of HG (30 mM) for 72 h. Number of viable cells is quantified by the tryphan blue exclusion method. Results are expressed as mean±S.E.M of three indipendent expriments. Statistical significance is set at ^ϕP<0.05 as compared to NG vs. HG and *P<0.05 as compared to HG vs. samples. […] Therefore, the molecular mechanism underlying the protective effect of ANM is explored next.
Furthermore, in FIG. 3C, to determine the effect of ANM or NAC on cell proliferation, 5×10^4 cells/well of HNDFs are incubated in a 6-well plate with ANM (10 μM) or NAC (100 μM) in the presence of HG (30 mM) for 72 h. Number of viable cells is quantified by the tryphan blue exclusion method. Results expressed as mean±S.E.M of three independent experiments. Statistical significance is set at ^ϕP<0.05 as compared to NG vs. HG and *P<0.05 as compared to HG vs. samples.
Cell proliferation is evaluated using trypan blue exclusion assay as described previously with minor modification. Cells are plated into 6-well plates at a density of 5×10^4 cells/well. After incubation overnight, cells are treated with test samples in the presence or absence of HG for 24-72 h. Cells exposed to 0.2% Trypan blue are then counted in a hemocytometer, and cells stained with Trypan blue are excluded. Percentage of viable cells is calculated based on the ratio of viable cells to total cell population in each well. The proliferation rate is calculated based on the number of viable cells in HG or sample-treated groups versus the NG-treated group.

HNDFs (CCD966SK) = experiment: MTT cytotoxicity of antcins against HNDFs; conditions: MTT, 72 h, up to 20 μM
Protocol: Please refer to FIG. 2A˜FIG. 2D, which are views showing HG-induced senescence affected by antcins in HNDFs. As shown in the figures, prior to an investigation, cytotoxicity of antcins against HNDFs is determined. In FIG. 2A, type of antcins are subjected to screen for potential anti-aging agents for skin aging. Names and chemical structures of the antcins are shown in the left and center column, respectively. The cytotoxic effects of antcins against HNDFs are investigated. Briefly, HNDFs are incubated with increasing concentrations (1, 5, 10 and 20 μM) of antcins including ANA, ANB, ANC, ANH, ANK and ANM for 72 h and the cell viability is determined by MTT assay. The 50% inhibitory concentrations (IC50) of each compound against HNDFs are shown in right column.
Cell viability is assessed by MTT colorimetric assay. Briefly, HNDFs (2×10^4cells/well) or HUVECs (5×10^4 cells/well) are seeded in a 24-well culture plate. After treatment with HG (15 and 30 mM) in the presence or absence of samples for 24-72 h, culture media is withdrawn and incubated with MTT (1 mg/mL) in fresh medium for 2 h. The MTT formazan crystals are dissolved in 400 μL of DMSO and the samples are measured at 570 nm […] using an ELISA microplate reader (Bio-Tek Instruments, Winooski, Vt.). The percentage of cell viability (%) is calculated as (A570 of treated cells/A570 of untreated cells)×100.

HO-1 and NQO-1 = experiment: Q-PCR of HO-1 and NQO-1 mRNA in HNDFs; conditions: 12 h
Protocol: Therefore, it is hypothesized that ANM may upregulate anti-oxidant genes, which may suppress HG-induced ROS generation in HNDFs. In FIG. 5B and FIG. 5C, to quantify the mRNA expression levels of HO-1 and NQO-1, HNDFs are incubated with ANM (10 μM) or NAC (100 μM) in the presence or absence of HG (30 mM) for 12 h. Total RNA is extracted and subjected to Q-PCR analysis. Relative mRNA levels are normalized with β-actin mRNA. […] In contrast, as compared with the NG treatment group, […] expression levels of HO-1 and NQO-1 are observed in the HG treatment group.
As shown in the figures, to confirm a hypothesis that ANM protects HNDFs from HG-induced oxidative stress, an Nrf2 gene knockdown system using Nrf2 siRNA is developed. In FIG. 6A, HNDFs are transfected with specific siRNA against Nrf2 or control siRNA. After transfection for 24 h, cells are incubated with ANM (10 μM) in the presence of HG for 12 h. Total RNA is extracted and subjected to Q-PCR analysis to determine HO-1 and NQO-1 mRNA expression levels. […] From the data, it can be concluded that Nrf2 plays a vital role in HO-1 and NQO-1 induction even at the basal level.
Total RNA is extracted from cultured HNDFs using Trizol Reagent (Thermo Fisher Scientific). Q-PCR analysis is performed using Applied Biosystems detection instruments and software. Forward and reverse primers (10 μM), and the working solution SYBR green, is used as a PCR master mix, under the following conditions: 96° C. for 3 minutes followed by 40 cycles at 96° C. for 1 minute, 50° C. for 30 seconds and 72° C. for 90 seconds. GAPDH is used as an internal standard to control for variability in amplification because of differences in starting mRNA concentrations. The copy number of each transcript is calculated as the relative copy number normalized by GAPDH copy number.

C=C(CCC(C)C1CCC2C3=C(C(=O)C(O)C21C)C1(C)CCC(O)C(C)C1CC3)C(C)C(=O)O (stereo not drawn) [ANM, antcin M]
HG-induced SIRT-1 phosphorylation at Ser47 in HUVECs (SIRT-1): significantly blocks | SIRT-1 expression in HUVECs under HG (SIRT-1): significantly rescues | HG-induced reduction in cell number, control siRNA cells (HNDFs; ANM 10 μM + HG): significantly blocked | protection of cell number, SIRT-1 siRNA transfected cells (HNDFs; ANM 10 μM + HG): partial protection | HG-induced reduction in cell proliferation, Nrf2 knock-down cells (HNDFs; ANM + HG): partially inhibited | cell proliferation, Nrf2 and SIRT-1 knock-down cells (HNDFs; ANM + HG): fails to rescue | cell proliferation (number of viable cells) vs HG group (HNDFs; antcins 10 μM + HG 30 mM, trypan blue exclusion): two-fold increase; also recorded: increased cell proliferation | cytotoxicity to HNDFs (in words) (HNDFs (CCD966SK)): did not show significant cytotoxicity | HO-1 and NQO-1 mRNA levels in HG treated groups (HO-1 and NQO-1; ANM 10 μM + HG 30 mM): further increased | HO-1 and NQO-1 expression, siNrf2-transfected cells (HO-1 and NQO-1; ANM 10 μM + HG): decrease | HO-1 and NQO-1 mRNA levels, control siRNA cells (HO-1 and NQO-1; ANM 10 μM + HG, scrambled siRNA): remarkable increase | HO-1 and NQO-1 mRNA levels, compound alone (HO-1 and NQO-1; ANM 10 μM, no HG): significantly increases
